Columns and labels:
P. aeruginosa ATCC 9027 = assay: micro-dilution broth method (MIC, MBC); assay type: cell-based, Pseudomonas aeruginosa
P. intermedia ATCC 25611 = assay: micro-dilution broth method (MIC, MBC); assay type: cell-based
C. jejunii ATCC 33291 = assay: micro-dilution broth method (MIC, MBC); assay type: cell-based, Campylobacter jejunii
K. pneumoniae ATCC 13883 = assay: micro-dilution broth method (MIC, MBC); assay type: cell-based, Klebsiella pneumoniae
[1] = test system: C. perfringens ATCC 13124; assay: microbe, parasite or virus in culture; assay type: cell-based, Clostridium perfringens
E. faecalis ATCC 29212 = assay: micro-dilution broth method (MIC, MBC); assay type: cell-based, Enterococcus faecalis
P. mirabilis ATCC 12453 = assay: micro-dilution broth method (MIC, MBC); assay type: cell-based, Proteus mirabilis
[2] = test system: S. epidermidis ATCC 12228; assay: micro-dilution broth method (MIC, MBC); assay type: cell-based, Staphylococcus epidermidis
HepG2 cells = assay: MTT assay (mitochondrial activity), 72 h exposure; assay type: cell-based, human
Experimental: (§1) The human hepatoma (HepG2) and colorectal adenocarcinoma (Caco-2) cells were purchased from the American Type Culture Collection: ATCC HB-8065 and ATCC HTB-37, respectively. These cells were cultured in Minimum Essential Medium Eagle (MEME) (ATCC). The murine fibroblasts cell line (Balb/c 3T3 clone A31) (gift from the Department of Swine Diseases of the National Veterinary Research Institute in Pulawy) was cultured in Dulbecco’s Modified Eagle Medium (DMEM) (ATCC). The media were supplemented with 10% BCS (Balb/c 3T3), 10% FBS (HepG2), 20% FBS (Caco-2), 1% L-glutamine, 1% antibiotic solution. The cells were maintained in 75 cm^2 cell culture flasks (NUNC) in a humidified incubator at 37 °C in an atmosphere of 5% CO2. The medium was refreshed every two or three days, and the cells were trypsinized by 0.25% trypsin–0.02% EDTA after reaching 70–80% confluence. Single cell suspensions were prepared and adjusted to a density of 2 × 10^5 cell/mL^−1 (HepG2), 1 × 10^5 cell/mL^−1 (Caco-2) and 5 × 10^4 cell/mL^−1 (Balb/c 3T3). The cell suspension was transferred to 96-well plates (100 µL/well) and incubated for 24 h before the exposure to the studied compounds. Stock solutions of ligands and metal complexes were prepared in sterile water and diluted with culture medium to obtain a concentration range from 0.1 to 10 µM. The final concentration of sterile water was 0.1% in the medium. […] As a negative control, cultured cells were grown in the absence of studied compounds. Each concentration was tested in six replicates in three independent experiments. Cytotoxicity was assessed after 72 h of exposure of the cells to compounds. The medium was not changed during the incubation time.
(§2) The metabolic activity of living cells was assessed by the measurement of the activity of dehydrogenases. […] The plate was shaken for 15 min at room temperature and transferred to a microplate reader Synergy HTX multi-mode reader (BioTek® Instruments Inc., Winooski, VT, USA) to measure the absorbance at 570 nm, using a blank as a reference. Cytotoxicity was expressed as a percentage of the negative control. […]

Balb/c 3T3 cells [3] = assay: NRU assay (lysosomal activity), 72 h exposure; assay type: cell-based, murine; settings: Balb/c 3T3, NRU, Figure 6
Experimental: as §1
This method is based on staining living cells with neutral red, which readily diffuses through the plasma membrane and accumulates in lysosomes. […] After 10 min of shaking, the absorbance of the dissolved NR was measured using a Synergy HTX multi-mode reader (BioTek® Instruments Inc., Winooski, VT, USA) at 540 nm using a blank as a reference. Cytotoxicity was expressed as a percentage of the negative control. […]

Balb/c 3T3 cells [4] = assay: MTT assay (mitochondrial activity), 72 h exposure; assay type: cell-based, murine; settings: Balb/c 3T3, MTT, Figure 6
Experimental: as §1, §2

Caco-2 cells = assay: MTT assay (mitochondrial activity), 72 h exposure; assay type: cell-based, human; settings: Caco-2, MTT, Figure 6
Balb/c 3T3 cells [5] = assay: TPC assay (total protein content), 72 h exposure; assay type: cell-based, murine; settings: Balb/c 3T3, TPC, Figure 6
Experimental: as §1
This assay is based upon staining the total cellular protein (proliferation). […] The absorbance was measured at 595 nm in a microplate reader Synergy HTX multi-mode reader (BioTek® Instruments Inc., Winooski, VT, USA) using a blank as a reference. Cytotoxicity was expressed as a percentage of the negative control. […]

[6] = P. aeruginosa ATCC 9027, value in brackets
[7] = P. intermedia ATCC 25611, value in brackets
[8] = C. jejunii ATCC 33291, value in brackets
[9] = K. pneumoniae ATCC 13883, value in brackets
[10] = C. perfringens ATCC 13124, value in brackets
[11] = E. faecalis ATCC 29212, value in brackets
[12] = P. mirabilis ATCC 12453, value in brackets
[13] = S. epidermidis ATCC 12228, value in brackets

Row | SMILES | MBC (P. aeruginosa ATCC 9027; P. aeruginosa ATCC 9027) [mg/L] | MIC (P. aeruginosa ATCC 9027; P. aeruginosa ATCC 9027) [mg/L] | MBC (P. aeruginosa ATCC 9027; [6]) [µM/mL] | MIC (P. aeruginosa ATCC 9027; [6]) [µM/mL] | MBC (P. intermedia ATCC 25611; P. intermedia ATCC 25611) [mg/L] | MIC (P. intermedia ATCC 25611; P. intermedia ATCC 25611) [mg/L] | MBC (P. intermedia ATCC 25611; [7]) [µM/mL] | MIC (P. intermedia ATCC 25611; [7]) [µM/mL] | MBC (C. jejunii ATCC 33291; C. jejunii ATCC 33291) [mg/L] | MBC (C. jejunii ATCC 33291; [8]) [µM/mL] | MIC (C. jejunii ATCC 33291; [8]) [µM/mL] | MBC (K. pneumoniae ATCC 13883; K. pneumoniae ATCC 13883) [mg/L] | MIC (K. pneumoniae ATCC 13883; K. pneumoniae ATCC 13883) [mg/L] | MBC (K. pneumoniae ATCC 13883; [9]) [µM/mL] | MIC (K. pneumoniae ATCC 13883; [9]) [µM/mL] | MBC ([1]; C. perfringens ATCC 13124) [mg/L] | MIC ([1]; C. perfringens ATCC 13124) [mg/L] | MBC [1, 10] [µM/mL] | MIC [1, 10] [µM/mL] | MBC (E. faecalis ATCC 29212; E. faecalis ATCC 29212) [mg/L] | further results
1 | O=[N+]([O-])[O-].[Ag+] [AgNO3, Silver nitrate] | 3.9 | 3.9 | 0.025 | 0.025 | 0.49 | 0.49 | 0.003 | 0.003 | 125 | 0.74 | 0.37 | 7.8 | 7.8 | 0.049 | 0.049 | 62.5 | 62.5 | 0.37 | 0.37 | 31.3 | MIC (C. jejunii ATCC 33291; C. jejunii ATCC 33291): 62.5 mg/L; MIC (E. faecalis ATCC 29212; E. faecalis ATCC 29212): 15.6 mg/L; MBC (E. faecalis ATCC 29212; [11]): 0.185 µM/mL; MIC (E. faecalis ATCC 29212; [11]): 0.09 µM/mL; MBC (P. mirabilis ATCC 12453; P. mirabilis ATCC 12453): 15.6 mg/L; MIC (P. mirabilis ATCC 12453; P. mirabilis ATCC 12453): 7.8 mg/L; MBC (P. mirabilis ATCC 12453; [12]): 0.09 µM/mL; MIC (P. mirabilis ATCC 12453; [12]): 0.049 µM/mL; MBC ([2]; S. epidermidis ATCC 12228): 15.6 mg/L; MIC ([2]; S. epidermidis ATCC 12228): 3.9 mg/L; MBC [2, 13]: 0.09 µM/mL; MIC [2, 13]: 0.025 µM/mL
2 | O=S(=O)([O-])[O-].[Ag+].[Ag+] [Ag2SO4, silver sulfate] | 125 | 62.5 | 0.4 | 0.2 | 7.8 | 7.8 | 0.025 | 0.025 | > 1000 | > 3.2 | 3.2 | 31.3 | 31.3 | 0.1 | 0.1 | 250 | 250 | 0.8 | 0.8 | 125 | MIC (C. jejunii ATCC 33291; C. jejunii ATCC 33291): 1000 mg/L; MIC (E. faecalis ATCC 29212; E. faecalis ATCC 29212): 31.3 mg/L; MBC (E. faecalis ATCC 29212; [11]): 0.4 µM/mL; MIC (E. faecalis ATCC 29212; [11]): 0.1 µM/mL; IC50 (HepG2 cells; mean ± SD, n = 3): > 10 µM; MBC (P. mirabilis ATCC 12453; P. mirabilis ATCC 12453): 31.3 mg/L; MIC (P. mirabilis ATCC 12453; P. mirabilis ATCC 12453): 31.3 mg/L; MBC (P. mirabilis ATCC 12453; [12]): 0.1 µM/mL; MIC (P. mirabilis ATCC 12453; [12]): 0.1 µM/mL; MBC ([2]; S. epidermidis ATCC 12228): 31.3 mg/L; MIC ([2]; S. epidermidis ATCC 12228): 15.6 mg/L; MBC [2, 13]: 0.1 µM/mL; MIC [2, 13]: 0.05 µM/mL
3 | Cc1ncc([N+](=O)[O-])n1CCO.Cc1ncc([N+](=O)[O-])n1CCO.Cc1ncc([N+](=O)[O-])n1CCO.Cc1ncc([N+](=O)[O-])n1CCO.O=S(=O)([O-])[O-].[Ag+].[Ag+] [[Ag(MTZ)2]2SO4] | 15.6 | 7.8 | 0.014 | 0.008 | 15.6 | 0.98 | 0.014 | 0.0009 | 500 | 0.46 | 0.23 | 31.3 | 15.6 | 0.03 | 0.014 | 3.9 | 1.95 | 0.004 | 0.002 | 62.5 | lowest concentration with significant (p ≤ 0.05) effect (Balb/c 3T3 cells [3]): 5.0 µM; lowest concentration with significant (p ≤ 0.05) effect (Balb/c 3T3 cells [4]): 5.0 µM; MIC (C. jejunii ATCC 33291; C. jejunii ATCC 33291, listed as [Ag(MTZ)2]2SO4·5H2O): 250 mg/L; lowest concentration with inhibition of mitochondrial activity (Caco-2 cells): 1.0 µM; MIC (E. faecalis ATCC 29212; E. faecalis ATCC 29212): 31.3 mg/L; MBC (E. faecalis ATCC 29212; [11]): 0.06 µM/mL; MIC (E. faecalis ATCC 29212; [11]): 0.03 µM/mL; lowest concentration with significant (p ≤ 0.05) effect (Balb/c 3T3 cells [5]): 5.0 µM; lowest concentration with significant (p ≤ 0.05) effect (HepG2 cells; Figure 6): 5.0 µM; MBC ([2]; S. epidermidis ATCC 12228): 15.6 mg/L; MIC ([2]; S. epidermidis ATCC 12228): 7.8 mg/L; MBC [2, 13]: 0.014 µM/mL; MIC [2, 13]: 0.007 µM/mL
